“Also recorded” adds a separate entry of the source.
Key:
[1] = test system: SARS-CoV-2 (USA_WA1/2020); format: cell-based
[2] = test system: SARS-CoV-2; conditions: single agent; cited from earlier work
[3] = test system: Vero E6 cells; format: cell-based
[4] = test system: COVID-19; conditions: 392 participants, outpatient setting; cited from earlier work
[5] = test system: SARS-CoV-2; conditions: cited from earlier work
[6] = healthy adults; cited from earlier work

CCN(CC)Cc1cc(Nc2ccnc3cc(Cl)ccc23)ccc1O [Amodiaquine]
antagonism against GS-441524 [1]: not | concentrations that significantly antagonized against remdesivir [1]: 0.625 to 5 µM | interaction with nitazoxanide in CPE assay [1]: notable synergism | interaction with remdesivir at high concentrations [1]: synergize | interaction with remdesivir in CPE assay [1]: strong antagonistic effect; also recorded: antagonize | fold less potent in Calu-3 (TMPRSS2+) than in Vero E6 [2]: > 10 fold

CCOC(=O)c1c(CSc2ccccc2)n(C)c2cc(Br)c(O)c(CN(C)C)c12 [Arbidol]
concentrations showing antagonism against remdesivir [1]: 123 to 370 nM | concentrations synergizing with remdesivir [1]: 3 to 10 µM | interaction with remdesivir in CPE assay [1]: antagonize

N#C[C@@]1(c2ccc3c(N)ncnn23)O[C@H](CO)[C@@H](O)[C@H]1O [GS-441524]
CPE [1]: ≈ 0

OC(c1cc(C(F)(F)F)nc2c(C(F)(F)F)cccc12)C1CCCCN1 (centres unmarked) [Mefloquine]
antagonism against GS-441524 [1]: not | concentrations that significantly antagonized against remdesivir [1]: 0.625 to 1.25 µM | interaction with remdesivir at high concentrations [1]: synergize | interaction with remdesivir in CPE assay [1]: strong antagonistic effect; also recorded: antagonize

CC(=O)Oc1ccccc1C(=O)Nc1ncc([N+](=O)[O-])s1 [Nitazoxanide]
nitazoxanide concentrations with complete rescue of CPE [1]: 0.625 to 5 µM | cytotoxicity [3]: not cytotoxic | toxicity to Vero E6 cells [3]: ~20% | efficacy with respect to 7-day viral load and symptom resolution [4]: modest efficacy | IC50 [5]: ~2000 nM | tolerability [6]: well tolerated

CCOC(=O)C1=C[C@@H](OC(CC)CC)[C@H](NC(C)=O)[C@@H](N)C1 [Oseltamivir phosphate]
antagonism with remdesivir [1]: no antagonism

CCC(CC)COC(=O)[C@H](C)N[P@](=O)(OC[C@H]1O[C@@](C#N)(c2ccc3c(N)ncnn23)[C@H](O)[C@@H]1O)Oc1ccccc1 [Remdesivir]
CPE [1]: ≈ 0 | interaction with nitazoxanide in CPE assay [1]: notable synergism
